Patent US20250066389A1, “HETEROCYCLIC AMIDES AND METHODS OF USING THE SAME” (Rgenta Therapeutics, Inc., priority 2021, published 2025)
Counter-ions that a name gives are not always drawn.

Test system: PMS1
Experiment: Mini-Gene Reporter Assay—PMS1 (firefly luciferase mini-gene reporter transiently transfected into HEK293 cells)
Assay type: cell-based
Conditions: Homo sapiens, mini-gene firefly luciferase reporter in HEK293 cells; for activation at 5 µM: read-out: PMS1 % Effect at 5 uM
Summary of the method: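 HEK293 cells transiently transfected with a mini-gene construct (skipped exon with flanking introns/exons fused to firefly luciferase, pcDNA3.1) are incubated with compounds in duplicate. Exon inclusion raises luminescence; EC50 fitted by Levenberg-Marquardt; effect also scored at 5 μM.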

| IC50 [nM] | Structure (SMILES) | activation at 5 µM [%] |
| --- | --- | --- |
| – | CCOc1cc2nc(C)cn2cc1C(=O)Nc1cnc(N2CCC(NC)C2)cn1 (centres unmarked) [Compound 688] | > 75 |
| 1000 to 10000 | CCOc1cc2nc(C)cn2cc1C(=O)Nc1ccc(N2CCC(C3CCCN3)CC2)nn1 (centres unmarked) [Compound 263] | – |
| – | CCOc1cn2nc(C)cc2cc1C(=O)Nc1cnc(NCCNC)nc1 [Compound 592] | < 50 |
| – | CCOc1cc2nn(C)cc2cc1C(=O)Nc1cnc(NC2CC3NCCOC3C2)nc1 (centres unmarked) [Compound 399] | < 50 |
| 1000 to 10000 | CCOc1cc2nc(C)cn2cc1C(=O)Nc1ccc(N2CCC(CNC(C)C)CC2)nn1 [Compound 232] | – |
| – | CCCC[C@H]1CN(c2cnc(NC(=O)c3cc4cc(C)nn4cc3OCC)cn2)CCN1 [Compound 540] | > 75 |
| – | Cc1cn2cc(C(=O)Nc3ccc(N4CCN[C@@H](C)C4)cn3)cc(F)c2n1 [Compound 107, (S)-8-fluoro-2-methyl-N-(5-(3-methylpiperazin-1-yl)pyridin-2-yl)imidazo[1,2-a]pyridine-6-carboxamide TFA Salt] | 50 to 75 |
| – | CCOc1cn2nc(C)cc2cc1C(=O)Nc1cnc(N2CCOC3(CCNC3)C2)nc1 (centres unmarked) [Compound 577] | < 50 |
| < 1000 | COc1cc2nc(C)cn2cc1C(=O)Nc1ccc(N2CCN[C@@H]3CC[C@@H]32)cc1F (racemic) [Compound 174, rac-N-(4-((1R,6S)-2,5-diazabicyclo[4.2.0]octan-2-yl)-2-fluorophenyl)-7-methoxy-2-methylimidazo[1,2-a]pyridine-6-carboxamide] | – |
| < 1000 | CCOc1cc2nc(C)cn2cc1C(=O)Nc1ccc(N2C[C@@H](C)N[C@@H](C)C2)nn1 [Compound 282] | – |
| – | CCOc1cc2nn(C)cc2cc1C(=O)Nc1cnc(N2CCN[C@@H](C)C2)nc1 [Compound 480] | > 75 |
| – | CCOc1cc2nn(C)cc2cc1C(=O)Nc1cnc(NC2CCNCC2)cn1 [Compound 373] | > 75 |
| – | CCOc1cn2nc(C)cc2cc1C(=O)Nc1cnc(N2CCCNCC2)nc1 [Compound 600] | < 50 |
| – | CCOc1cc2nn(C)cc2cc1C(=O)Nc1ccc(N2CCN(C(=O)OC(C)OC(=O)C(C)C)[C@@H](C)C2)nn1 (stereo partly drawn) [Compound 747, 1-(isobutyryloxy)ethyl (2S)-4-(6-(6-ethoxy-2-methyl-2H-indazole-5-carboxamido)pyridazin-3-yl)-2-methylpiperazine-1-carboxylate] | > 75 |
| 1000 to 10000 | COc1cc2nn(C)cc2cc1C(=O)Nc1ccc(N2CCNCC2)cn1 [Compound 113, 6-methoxy-2-methyl-N-(5-(piperazin-1-yl)pyridin-2-yl)-2H-indazole-5-carboxamide HCl Salt] | – |
| – | CCOc1cc2nn(C)cc2cc1C(=O)Nc1cnc(NCC2CNCCC2(F)F)nc1 (centres unmarked) [Compound 411] | < 50 |
| < 1000 | COc1cc2nn(C)cc2cc1C(=O)Nc1ccc(N2CCN[C@@H](C)C2)nn1 [Compound 125, (S)-6-methoxy-2-methyl-N-(6-(3-methylpiperazin-1-yl)pyridazin-3-yl)-2H-indazole-5-carboxamide hydrochloride] | – |
| – | COCC1CNCCN1c1ccc(NC(=O)c2cn3cc(C)nc3cc2OC)c(F)c1 (centres unmarked) [Compound 144, N-(2-fluoro-4-(2-(methoxymethyl)piperazin-1-yl)phenyl)-7-methoxy-2-methylimidazo[1,2-a]pyridine-6-carboxamide] | 50 to 75 |
| – | CCOc1cc2nn(C)cc2cc1C(=O)Nc1cnc(N2CCNCC2)nc1 [Compound 477] | 50 to 75 |
| – | CCOc1cc2nn(C)cc2cc1C(=O)Nc1cnc(N2C[C@@H](F)C[C@H]2CNC)cn1 [Compound 342] | < 50 |
| – | COc1cc2nc(C)cn2cc1C(=O)Nc1ccc(N2CC(C)NCC2C)cc1F (centres unmarked) [Compound 163, N-(4-(2,5-dimethylpiperazin-1-yl)-2-fluorophenyl)-7-methoxy-2-methylimidazo[1,2-a]pyridine-6-carboxamide] | > 75 |
| – | CCOc1cc2nn(C)cc2cc1C(=O)Nc1cnc(N2CCC(NC)C2)cn1 (centres unmarked) [Compound 361] | > 75 |

| Structure (SMILES) | IC50 [nM] | activation at 5 µM [%] |
| --- | --- | --- |
| CCOc1cc2nc(C)cn2cc1C(=O)Nc1ccc(N2C3CCCC2CNC3)nn1 [Compound 238] | 1000 to 10000 | – |
